# Where a SMILES comes first, the peptide text is derived from it. [ ]: non-standard residue; d: D form. dLac(3-vinyl) = C=CC[C@@H](O)C(=O)O; NMeV = CN[C@H](C(=O)O)C(C)C; NMeA = CN[C@@H](C)C(=O)O; βAla = NCCC(=O)O
# Tests used:
# BmPPI = target: T1, BmPPI (Bombyx mori, UniProt Q1HQ20); assay: bio-layer interferometry, His-tagged protein on Ni-NTA biosensor; type: binding
# T1 construct: cyclophilin superfamily
# T1 sequence (Q1HQ20 1-171): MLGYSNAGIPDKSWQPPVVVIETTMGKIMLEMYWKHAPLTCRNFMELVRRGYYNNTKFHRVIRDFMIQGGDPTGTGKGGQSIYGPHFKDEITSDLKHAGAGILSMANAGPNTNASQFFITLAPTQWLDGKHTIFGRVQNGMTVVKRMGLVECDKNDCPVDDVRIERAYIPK
# From the text: bio-layer interferometry, His-tagged protein on Ni-NTA biosensor on BmPPI
# [1] = target: Bmo.3174 (predicted B. mori cell division cycle 5-like protein, BmCDC5), DNA-binding-domain fusion (Bombyx mori (silkworm)); assay: two-hybrid; insect two-hybrid (I2H) in Spodoptera frugiperda Sf-9 cells co-transfected with AD, DBD and PIE-Luc vectors; luciferase read-out (lumen value) against untransfected Sf-9 cells (CK, 40); 27 °C
Compound,Kd (BmPPI) [µM],"lumen value (luciferase, I2H) [1]"
"C=CC[C@H]1OC(=O)CCNC(=O)[C@H](C)N(C)C(=O)[C@H](C(C)C)N(C)C(=O)[C@H]([C@@H](C)CC)NC(=O)[C@@H]2CCCN2C1=O [DA, Destruxin A] (cyclo(I[NMeV][NMeA][βAla][dLac(3-vinyl)]P))",1980,–
"peptidyl-prolyl cis-trans isomerase (BmPPI), activation-domain fusion (natural protein)",–,580
